Row | Structure (SMILES) | melting point
1 | O=C(NCCc1ccc2c(c1)OCO2)C12CC3CC(CC(C3)C1)C2 | 146 to 148 °C
2 | CCN(CC)C(=O)c1ccc(-c2ccc(-c3ccccc3)c(-c3ccc4c(c3)C(C)(C)CCC4(C)C)c2)cc1 | 113 °C
3 | CCN(CC)CCN1C(=O)Nc2ccncc2C1c1ccccc1 (stereo not drawn) | 132 to 134 °C
4 | N#Cc1ccc(N2CCN(CCC3CCc4ccccc43)CC2)cc1 (stereo not drawn) | 157 to 158 °C
5 | Cc1cccc(N=c2scc(-c3ccc(Cl)c(S(=O)(=O)N(C)C)c3)n2C)c1C | 226 °C
6 | O=C(O)c1cc(SCC(=O)c2ccccc2)cc(C(F)(F)F)c1 | 135 to 150 °C
7 | CC1(C)OC(c2ccc(S(C)(=O)=O)cc2)=C(c2cc3ccccc3s2)C1=O | 204 to 206 °C
8 | Oc1ccc(Nc2nc(Cl)nc(NC3CCCCCC3)n2)cc1Cl | 91 °C
9 | CCOC(=O)c1cc2c(OC)ccnc2[nH]1 | 195 to 197 °C
10 | CC(=O)OC1CSC(Oc2cccc3c2nc(C)n3C)C(OC(C)=O)C1OC(C)=O (stereo not drawn) | 192 °C
11 | CCOc1cc(-c2cc(C(F)(F)F)n3ncc(C(=O)Nc4nc(C)c(S(N)(=O)=O)s4)c3n2)ccc1C(F)(F)F | 300 °C
12 | COC(=O)c1ccc(-c2ccc(-c3ccc4c(c3)C(C)(C)CCC4(C)C)[nH]2)cc1 | 176 to 179 °C
13 | C[C@@H]1S[C@@H](C(=O)Nc2ccc(CC3OC(=O)NC3=O)cc2)Cc2cc3c(cc2C1=O)OCO3 (stereo partly drawn) | 164 to 166 °C
14 | Cc1sc(C)c2c(=O)n3cc(C#N)ccc3nc12 | 242 to 244 °C
15 | O=C1COC2(CCN(CCc3c[nH]c4ccccc34)CC2)CN1 | 48 to 50 °C
16 | C[C@@H]1N=C(c2ccccc2)c2cc(I)ccc2N(C)C1=O | 115 °C
17 | OC(CCc1ccccc1)C(O)CCc1ccccc1 (stereo not drawn) | 128 to 129 °C
18 | C=Cc1ccc(CN2CCNCCN(Cc3ccc(C=C)cc3)CC2)cc1 | 162 to 164 °C
19 | CCCCOCCOc1ccc(-c2ccc3c(c2)C=C(C(=O)Nc2ccc([C@H](O)c4ccccn4)cc2)CCN3S(C)(=O)=O)cc1 | 158 to 160 °C
20 | C[C@H]1[C@@H]2C(=O)N(Cc3ccccc3)C(=O)[C@@H]2[C@H](c2ccc(C#N)cc2)N1C (racemic) | 188 to 190 °C
21 | CC(=O)N1CCC(C(=O)N2CC[C@@H](N(C)C(=O)c3ccc(C(F)(F)F)cc3)[C@H](c3ccc(Cl)c(Cl)c3)C2)CC1 | 122 °C
22 | CP(C)(=O)CN1CCN(c2n[nH]c3ccccc23)CC1 | 223 to 225 °C
23 | NS(=O)(=O)c1ncccc1-c1ccccc1 | 172 °C
24 | Cc1nc2ccc(F)cc2[nH]c1=O | 258 to 260 °C
25 | c1ccc(-c2ncc(-c3cnc(-c4ccccc4)[nH]3)cn2)cc1 | 253 °C

Row | Structure (SMILES) | melting point
26 | CCNC(=S)NS(=O)(=O)c1cc(CCNC(=O)C=Cc2ccc(OC)cc2OC)ccc1OCCOC | 146 to 148 °C
27 | CCCC[C@H]1COC(c2ccc(OCCCCCCCc3cc(C)no3)cc2)=N1 | 122 to 123 °C
28 | Cc1cccc(NC(=O)NC2N=C(c3ccccc3F)c3ccccc3N(Cc3ccsc3)C2=O)c1 (racemic) | 221 to 223 °C
29 | COC(=O)c1ccc(Cc2c(OCc3ccc(-c4ccccc4-c4nnn[nH]4)cc3)cc(C)nc2C)cc1 | 144 to 145 °C
30 | CCC(OC(C)=O)C(=O)Nc1ccc(I)cc1Cl (stereo not drawn) | 156 to 158 °C
31 | COCOc1c(N=Nc2ccc(OC)cc2)cc(OC)cc1C(C)(C)C | 102 to 103 °C
32 | COc1ccc(Cl)cc1C1(O)C(=O)Nc2cc(C(F)(F)F)ccc21 (stereo not drawn) | 207 to 210 °C
33 | Cc1ccc(CC(=O)NC(NC(=NC#N)Nc2cccnc2C)C(C)(C)C)cc1F (stereo not drawn) | 75 to 77 °C
34 | O=C1Cc2cc(C3=NNC(=O)C4CC34)ccc2N1 (stereo not drawn) | 305 to 307 °C
35 | CCOCc1nc2c(N)nc3cc(OCc4cccc(N)c4)ccc3c2n1CC(C)C | 228 to 230 °C
36 | O=C(c1ccc(OC(F)(F)F)cc1)c1sccc1O | 67 to 70 °C
37 | COc1cccc(Cn2c(C(=O)O)c(-c3ccc(C(=O)NC4CC4)cc3)c3ccccc32)c1 | 237 °C
38 | Cn1c2ccccc2c2c(=O)n([C@@H]3CN4CCC3CC4)ccc21 | 251 to 252 °C
39 | CC(C)n1nc(-c2sc(NC(=O)c3ccc(C(F)(F)F)cc3)nc2-c2ccccc2)ccc1=O | 162 to 167 °C
40 | O=C(O)c1cn(C2CC2)c2c(F)c(N3CCC(=NO)C3)c(F)c(F)c2c1=O | 300 °C
41 | COc1cc(OCc2ccccn2)c(C=CC(=O)c2ccc(S(N)(=O)=O)cc2)cc1-c1cccs1 | 188 to 189 °C
42 | CCN1C(=O)CCc2cc(S(=O)(=O)c3cccc([C@@]4(O)CCO[C@@H](C)C4)c3)ccc21 | 122 to 124 °C
43 | N[C@@H](Cc1ccc(C(F)(F)F)cc1)[C@H](O)c1cccc(F)c1 (racemic) | 81 to 82 °C
44 | NC(=O)CC1Nc2cccc3cccc(c23)S1(=O)=O (stereo not drawn) | 195 to 196 °C
45 | ClC(Cl)(Cl)c1nc2ccccc2o1 | 102 °C
46 | CCCCCCCCCCCCCCCC(=O)OCC1OC(N2CNC(N)=NC2=O)CC1O (stereo not drawn) | 123 to 124 °C
47 | O=Cc1ccc(O)c(OCc2ccccc2)c1 | 123 to 124 °C
48 | CC(=O)OC=C1CSC2C(NC(=O)Cc3ccccc3)C(=O)N2C1C(=O)OC(C)(C)C (stereo not drawn) | 178 to 183 °C
49 | CC1C(=O)CSCC1=O | 131 to 133 °C

Now from value to molecule:

Row | melting point | Structure (SMILES)
50 | 118 to 120 °C | Cc1[nH]cnc1CCNC(=NCCCOc1cccc(CN2CCCCC2)c1)NC(=O)c1ccccc1
51 | 129 to 130 °C | CCCc1cc(CC(=O)O)ccc1OC1COc2ccc(C(C)=O)c(O)c2C1 (stereo not drawn)
52 | 163 to 169 °C | CN1CCN(c2cc(Cl)cc3c2c(=O)n(CC2CCCCC2)c(=O)n3Cc2ccccc2)CC1
53 | 89 to 92 °C | COc1cc2c(cc1OC)C(C)(CC(=O)O)OCC2 (stereo not drawn)
54 | 84 to 86 °C | CC1(C)CC(=O)c2ccc(OCCn3ccnc3)cc2O1
55 | 132 to 134 °C | CCOC(=O)C(C)(C)Oc1cccc2c1CC(O)C(SC)C2 (stereo not drawn)
56 | 110 to 112 °C | O=C(Nc1ccc2c(c1)OCO2)c1ccccc1
57 | 205 to 206 °C | CC(C)(C)NC(=NC#N)Nc1cccnc1
58 | 55 to 57 °C | COc1cc(C(=O)N2CCC(CCN3CCC(C(=O)c4nc5ccccc5n4Cc4ccc(F)cc4)CC3)(c3ccc(C(F)(F)F)cc3)C2)cc(OC)c1OC (stereo not drawn)
59 | 153 to 154 °C | Cc1ncc([N+](=O)[O-])n1CCN1C(=O)CC(C)(C)CC1=O
60 | 170 to 172 °C | Cc1cc2c(cc1C(=O)C(C)CC(=O)O)NC(=O)CO2 (stereo not drawn)
61 | 63 to 65 °C | C#CCCOc1cc(C=O)ccc1OC
62 | 230 to 237 °C | CCn1c(O)cc(C)c(C#N)c1=O
63 | 167 to 169 °C | COc1ccc([N+](=O)[O-])c(CS(=O)(=O)c2ccccc2)c1
64 | 166 to 167 °C | FC(F)C(F)(F)Sc1nc(-c2ccco2)c(-c2ccco2)[nH]1
65 | 85 to 87 °C | CS(=O)(=O)Oc1ccc2c(c1)C(=O)C(CC=O)C2 (racemic)
66 | 84 to 85 °C | COC(=O)CCCCNC(=O)C[C@H]1O[C@H](c2cccc(OC)c2OC)c2cc(Cl)ccc2N(CC(C)(C)CO)C1=O
67 | 135 to 137 °C | Cc1c(-c2ccc(OCc3ccccc3)c(F)c2)[nH]c2ccc(OCc3ccccc3)cc12
68 | 124 to 126 °C | CC(=O)c1c(N)c(-c2ccccc2)n(C)c1C
69 | 154 °C | CC(C)Cn1nc(-c2ccccc2)c(-c2ccccc2)c1CO
70 | 195 °C | CCn1c(N)c(C(N)=O)c(=O)c2cnc(Nc3cccc(N4CCOCC4)c3)nc21
71 | 143 to 145 °C | COc1cc2c(c(O)c1C)COC(C)C2 (stereo not drawn)
72 | 59 to 62 °C | CCCCCCCCCCCCCCc1cc(C(=O)OCC)c[nH]1
73 | 178 to 180 °C | CCn1cc(C(=O)NCCc2ccccc2)c(=O)c2cnc(N3CCCC3)nc21
74 | 321 to 322 °C | CCOC(=O)c1cnn2c1nc(NC)c1cnc3c(cnn3CC)c12

Row | melting point | Structure (SMILES)
75 | 144 °C | Nc1nc(O)c2c(n1)NCC(CCCCCC(=O)N[C@@H](CCC(=O)O)C(=O)O)C2 (stereo partly drawn)
76 | 135 to 140 °C | CC(=O)COc1cccnc1C(N)=O
77 | 260 °C | NS(=O)(=O)c1cccc(NC(=O)c2cnn3c(C(F)(F)F)cc(-c4ccc(Cl)cc4)nc23)c1
78 | 236 to 237 °C | COc1ccc(C(=O)Oc2ccc(C(=O)O)c(C)c2)cc1C12CC3CC(CC(C3)C1)C2
79 | 201 to 203 °C | CCOC(=O)C1C=Nc2c(c(F)cc3cc(C(=O)N(C)Cc4ccccc4)cnc23)C1=O (stereo not drawn)
80 | 71 to 73 °C | COc1ccc(CCCC(CC(=O)O)CC(=O)O)cc1
81 | 184 to 186 °C | O=C(COc1ccccc1)NC1C(=O)N2C1SCN(O)C2C(=O)OCc1ccccc1 (stereo not drawn)
82 | 192 to 195 °C | Cc1nnc2cnc(-c3ccccc3)cn12
83 | 139 to 141 °C | CCOCc1nc2c(N)nc(C)cc2n1NC(C)C
84 | > 260 °C | CC(C)(C)c1cc(N2CCN(C(=O)c3ccc(N)cc3)C2=O)cc(C(C)(C)C)c1O
85 | 150 to 151 °C | Cc1c(C)c2c(c(Br)c1NC(=O)CC(C)(C)C)C(c1ccc(C(C)C)cc1)CO2 (stereo not drawn)
86 | 144 to 148 °C | Cc1c(CCC(=O)O)cccc1C(=O)c1ccc(Cl)cc1
87 | 64 to 67 °C | CSc1nc2c(NCc3ccccc3)nc(NCCCO)nc2n1C(C)C
88 | 110 to 114 °C | Clc1ccc2c(-n3cc(Cl)cn3)ccnc2c1
89 | 138 to 140 °C | CN(CC(=O)O)C(=O)CCc1nc2c(F)c(F)cc(F)c2s1
90 | 75 to 77 °C | CC(C)(C)C(=O)Oc1ccc(NCC2CCc3ccccc3C2)cc1 (stereo not drawn)
91 | 83 to 84 °C | C#CCN(C)C(=S)Nc1ccccc1CC(=O)OC
92 | 90 to 91 °C | Cc1cc(C)cc(C(=O)Cc2ccncc2)c1
93 | 171 to 173 °C | COc1cc(COc2nn(-c3ccccc3)cc2/C=C/c2nc(N3CCOCC3)sc2C)ccc1OCc1nc(-c2ccc(CC(=O)O)cc2)oc1C
94 | 170 to 173 °C | NC(=O)CN1CCN(C(=O)c2cc(C(F)(F)F)cc(C(F)(F)F)c2)[C@H](Cc2c[nH]c3ccccc23)C1
95 | 141 to 142 °C | O=C(CCN1CCN(c2ccc(F)cc2)CC1)c1cnn2c1CCCC2
96 | 164 to 165 °C | COc1cc(COc2nn(-c3ccccc3)cc2C=O)ccc1OCc1nc(-c2ccccc2)sc1C
97 | 58 to 59 °C | COc1cccc2c1C(C#N)C2 (stereo not drawn)
98 | 169 to 170 °C | COc1cccc(C2COc3c(C)c(C)c(NC(=O)CC(C)(C)C)c(C)c32)c1 (stereo not drawn)
